Measured values from US20050276832A1, “Topical compositions and uses thereof for treating aquatic animals subjected to disinfection and vaccination” (Veterquimica Ltda., priority 2004, published 2005).

System: Saprolengia sp.
Assay: Antifungal bath treatment of Atlantic salmon infected by Saprolengia sp.
Type: in vivo
Settings: 1 h baths on Day 1 and Day 7
Text: Five groups were formed, made up of 30 fish each of the Atlantic salmon species, 40-50 grams, showing clear signs of infection by the fungus Saprolengia sp., confirmed by laboratory tests. One of the groups was preserved as control without treatment, while the four remaining groups were subjected to experimental antifingal treatments. In this way, the groups were set up as follows: • GROUP 1: Without antifungal treatment • GROUP 2: Treated with the antifungal product bronopol, according to recommended dose of 20 ppm • GROUP 3: Treated with the Formulation A, in a dose of 28 ml/70 liters of water • GROUP 4: Treated with the Formulation B, in a dose of 28 ml/70 liters of water • GROUP 5: Treated with the Formulation C, in a dose of 28 ml/70 liters of water
The treatments consisted of the following: on Day 1, the fish were submerged for one hour in a bath with 70 liters of water to which the corresponding formulation had been added. Afterwards, they were transferred to breeding tanks that only contained water and with a standard feeding regime, all under the customary aquarium control that includes controlling the temperature (16-17 degrees C.), dissolved oxygen levels not lower than 7 ppm, and control of nitrites and ammonium. On Day 7, the fish were subjected to a second bath, similar to that of Day 1, to continue their development until 14 days of breeding had been completed, keeping a record of the fish killed due to the effect of the Saprolengia fungus. On Day 15, the fish that survived were harvested and the level of infection by Saprolengia was determined for each fish.
The infection level was classified according to the following scale: • INFECTION GRADE 0: healthy fish, without fungus on the skin • INFECTION GRADE 1: fish having only fungal spots on the skin. • INFECTION GRADE 2: fish with short fungal hypha • INFECTION GRADE 3: fish having necrosis of the tissues • INFECTION GRADE 4: fish with cottony hypha • INFECTION GRADE 5: fish dead due to fungal infection (occurring during the 14 days of breeding) Results

With `O=[N+]([O-])C(Br)(CO)CO` [bromopol, bromo-2-nitropropane-1.3-diol] the “fish with grade 5 (death)” value (30 fish per group, dead due to fungal infection during 14 days of breeding) was 50%, the “fish with grade 1-2” value (infection level on Day 15, grade 1 fungal spots, grade 2 short fungal hypha) was 40% and the “fish with grade 0 (healthy)” value (infection level on Day 15, without fungus on the skin) was 10%.
